ChEMBL document CHEMBL1201862, “PubChem BioAssay data set” (2004)
Active and inactive are the calls of the source.

Assays:
[1] = molecular target: T1, Sentrin-specific protease 8 (Homo sapiens, UniProt Q96LD8); format: functional;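 note: luminescence read-out of SENP8 inhibition, dose-response confirmation following an ultra-high-throughput screen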
T1 sequence (Q96LD8 whole entry): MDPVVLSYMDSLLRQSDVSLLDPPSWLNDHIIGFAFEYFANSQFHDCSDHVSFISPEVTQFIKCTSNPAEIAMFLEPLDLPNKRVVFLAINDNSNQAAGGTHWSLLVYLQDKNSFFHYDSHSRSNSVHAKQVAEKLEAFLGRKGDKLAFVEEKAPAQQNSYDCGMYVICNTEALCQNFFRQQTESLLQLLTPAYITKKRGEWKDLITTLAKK

[2] = molecular target: T2, Sentrin-specific protease 6 (Homo sapiens, UniProt Q9GZR1); format: functional
T2 sequence (Q9GZR1 whole entry): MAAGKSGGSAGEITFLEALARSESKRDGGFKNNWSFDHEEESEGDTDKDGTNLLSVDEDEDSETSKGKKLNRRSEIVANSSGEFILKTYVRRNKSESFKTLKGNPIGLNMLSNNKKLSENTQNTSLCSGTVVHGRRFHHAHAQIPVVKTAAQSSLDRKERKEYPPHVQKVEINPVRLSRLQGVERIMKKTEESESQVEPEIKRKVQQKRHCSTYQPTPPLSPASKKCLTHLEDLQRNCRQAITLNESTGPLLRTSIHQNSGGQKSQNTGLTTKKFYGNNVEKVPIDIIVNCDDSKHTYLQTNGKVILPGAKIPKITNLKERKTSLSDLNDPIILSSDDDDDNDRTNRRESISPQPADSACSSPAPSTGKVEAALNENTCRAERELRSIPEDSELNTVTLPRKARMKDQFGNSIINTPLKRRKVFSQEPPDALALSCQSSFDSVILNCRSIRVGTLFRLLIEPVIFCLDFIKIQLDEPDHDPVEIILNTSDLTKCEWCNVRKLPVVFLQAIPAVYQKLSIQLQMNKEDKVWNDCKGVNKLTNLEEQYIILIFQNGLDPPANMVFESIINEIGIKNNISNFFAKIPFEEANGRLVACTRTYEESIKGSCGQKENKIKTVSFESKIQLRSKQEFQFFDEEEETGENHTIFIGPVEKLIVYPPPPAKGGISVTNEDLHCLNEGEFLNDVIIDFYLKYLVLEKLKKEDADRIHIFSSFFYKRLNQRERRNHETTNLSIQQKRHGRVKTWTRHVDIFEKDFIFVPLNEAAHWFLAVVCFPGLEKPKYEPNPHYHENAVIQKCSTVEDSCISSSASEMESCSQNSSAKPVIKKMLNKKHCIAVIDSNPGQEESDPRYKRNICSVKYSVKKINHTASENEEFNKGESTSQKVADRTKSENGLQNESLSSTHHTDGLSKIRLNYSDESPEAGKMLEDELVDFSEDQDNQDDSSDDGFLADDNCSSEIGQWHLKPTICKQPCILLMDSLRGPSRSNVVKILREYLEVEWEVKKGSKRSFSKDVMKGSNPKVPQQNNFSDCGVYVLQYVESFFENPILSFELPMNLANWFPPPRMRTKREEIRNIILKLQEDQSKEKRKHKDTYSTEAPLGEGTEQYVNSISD

Caspase-3 [3] = molecular target: T3, Caspase-3 (Homo sapiens, UniProt P42574); format: functional
T3 sequence (P42574 whole entry): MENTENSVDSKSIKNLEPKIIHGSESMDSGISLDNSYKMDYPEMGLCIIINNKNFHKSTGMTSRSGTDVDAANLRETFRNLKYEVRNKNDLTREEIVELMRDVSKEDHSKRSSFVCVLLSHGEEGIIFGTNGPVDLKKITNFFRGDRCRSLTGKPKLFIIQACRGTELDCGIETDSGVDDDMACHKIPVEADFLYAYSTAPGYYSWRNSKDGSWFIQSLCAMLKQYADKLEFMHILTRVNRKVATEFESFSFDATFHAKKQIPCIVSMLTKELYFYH

[4] = molecular target: T4, Sentrin-specific protease 7 (Homo sapiens, UniProt Q9BQF6); format: functional;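 note: Luminescence-based dose-response confirmation of ultra-high-throughput screening hits, measuring inhibition of SENP7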
T4 sequence (Q9BQF6 whole entry): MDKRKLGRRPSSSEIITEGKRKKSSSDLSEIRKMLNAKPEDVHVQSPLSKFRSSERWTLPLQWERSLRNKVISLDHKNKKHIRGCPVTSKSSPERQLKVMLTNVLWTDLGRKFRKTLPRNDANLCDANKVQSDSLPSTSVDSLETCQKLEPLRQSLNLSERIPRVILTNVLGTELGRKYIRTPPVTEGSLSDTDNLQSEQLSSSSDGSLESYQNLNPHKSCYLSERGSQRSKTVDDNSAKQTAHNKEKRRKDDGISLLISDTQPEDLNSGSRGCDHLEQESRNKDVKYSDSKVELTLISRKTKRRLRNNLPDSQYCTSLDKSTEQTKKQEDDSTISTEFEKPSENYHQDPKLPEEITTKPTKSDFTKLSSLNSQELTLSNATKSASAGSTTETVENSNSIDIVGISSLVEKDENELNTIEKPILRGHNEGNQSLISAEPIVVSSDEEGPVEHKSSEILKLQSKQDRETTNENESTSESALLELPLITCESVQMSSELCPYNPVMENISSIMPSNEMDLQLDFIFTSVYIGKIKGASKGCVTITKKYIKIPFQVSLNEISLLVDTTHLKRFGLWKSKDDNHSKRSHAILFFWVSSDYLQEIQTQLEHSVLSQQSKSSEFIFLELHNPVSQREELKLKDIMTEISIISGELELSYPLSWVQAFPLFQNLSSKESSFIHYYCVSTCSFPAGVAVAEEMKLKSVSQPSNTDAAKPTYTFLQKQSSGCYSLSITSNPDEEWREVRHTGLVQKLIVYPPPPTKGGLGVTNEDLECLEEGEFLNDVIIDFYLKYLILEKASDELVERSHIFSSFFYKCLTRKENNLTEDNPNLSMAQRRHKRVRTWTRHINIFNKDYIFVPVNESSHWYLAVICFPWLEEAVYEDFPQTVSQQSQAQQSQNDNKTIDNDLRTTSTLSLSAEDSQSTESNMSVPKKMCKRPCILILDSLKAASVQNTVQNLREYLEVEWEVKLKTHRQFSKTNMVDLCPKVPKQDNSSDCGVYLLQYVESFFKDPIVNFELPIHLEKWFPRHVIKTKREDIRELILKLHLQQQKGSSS

[5] = molecular target: T2, Sentrin-specific protease 6; assay: SAR Analysis of small molecule inhibitors of Sentrin-specific protease 6 (SENP6) using a Luminescent assay. [Related pubchem assays (depositor defined):AID2582, AID2599]; format: functional
[6] = molecular target: T4, Sentrin-specific protease 7; assay: inhibition of human SENP7 cleavage activity – biochemical, luminescence, SAR follow-up (AID 504497); format: functional
[7] = molecular target: T1, Sentrin-specific protease 8; assay: inhibition of human SENP8 cleavage activity – biochemical, luminescence, SAR follow-up (AID 504501); format: functional
Caspase-3 [8] = molecular target: T3, Caspase-3; assay: SAR Analysis of small molecule inhibitors of Sentrin-specific proteases (SENPs) using a Caspase-3 Selectivity assay. [Related pubchem assays (depositor defined):AID2540, AID2599, AID434973, AID489001]; format: functional
[9] = molecular target: T5, Neuropeptides B/W receptor type 1 (Homo sapiens, UniProt P48145); assay: human NPBW1 receptor blockade, IC50 – cell-based, fluorescence, dose response, set 6, late-stage follow-up (AID 588583); format: functional
T5 sequence (P48145 whole entry): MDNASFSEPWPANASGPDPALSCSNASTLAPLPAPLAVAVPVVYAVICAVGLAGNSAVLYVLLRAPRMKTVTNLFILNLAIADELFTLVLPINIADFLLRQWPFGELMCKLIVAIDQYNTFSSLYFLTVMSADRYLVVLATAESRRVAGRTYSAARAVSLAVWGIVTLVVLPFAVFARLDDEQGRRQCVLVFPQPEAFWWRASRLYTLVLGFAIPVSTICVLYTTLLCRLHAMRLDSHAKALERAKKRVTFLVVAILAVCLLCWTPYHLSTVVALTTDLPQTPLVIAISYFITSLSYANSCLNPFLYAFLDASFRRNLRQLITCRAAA

[10] = molecular target: Melanin-concentrating hormone receptor 1 (Homo sapiens, UniProt Q99705); assay: Late-stage fluorescence-based counterscreen for antagonists of the G-protein coupled receptor 7 (GPR7): cell-based dose response assay to identify antagonists of the melanin-concentrating hormone receptor 1 (MCHR1) Set 6.; format: functional
Chain of Melanin-concentrating hormone receptor 1 (Q99705 whole entry): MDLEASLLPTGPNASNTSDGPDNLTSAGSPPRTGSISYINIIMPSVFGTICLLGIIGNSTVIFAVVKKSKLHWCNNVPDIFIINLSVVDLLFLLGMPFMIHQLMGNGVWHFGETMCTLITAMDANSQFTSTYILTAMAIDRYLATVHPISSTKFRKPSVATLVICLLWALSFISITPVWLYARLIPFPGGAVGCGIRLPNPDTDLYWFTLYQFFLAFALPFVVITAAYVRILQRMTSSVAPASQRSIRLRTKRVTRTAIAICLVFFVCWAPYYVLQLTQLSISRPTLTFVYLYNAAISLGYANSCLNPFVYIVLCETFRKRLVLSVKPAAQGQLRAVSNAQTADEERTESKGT

[11] = molecular target: T6, Mannose-6-phosphate isomerase (Homo sapiens, UniProt P34949); assay: MPI inhibition at elevated mannose 6-phosphate – biochemical, fluorescence intensity, high mannose 6-phosphate, primary screen (AID 1220)
T6 sequence (P34949 whole entry): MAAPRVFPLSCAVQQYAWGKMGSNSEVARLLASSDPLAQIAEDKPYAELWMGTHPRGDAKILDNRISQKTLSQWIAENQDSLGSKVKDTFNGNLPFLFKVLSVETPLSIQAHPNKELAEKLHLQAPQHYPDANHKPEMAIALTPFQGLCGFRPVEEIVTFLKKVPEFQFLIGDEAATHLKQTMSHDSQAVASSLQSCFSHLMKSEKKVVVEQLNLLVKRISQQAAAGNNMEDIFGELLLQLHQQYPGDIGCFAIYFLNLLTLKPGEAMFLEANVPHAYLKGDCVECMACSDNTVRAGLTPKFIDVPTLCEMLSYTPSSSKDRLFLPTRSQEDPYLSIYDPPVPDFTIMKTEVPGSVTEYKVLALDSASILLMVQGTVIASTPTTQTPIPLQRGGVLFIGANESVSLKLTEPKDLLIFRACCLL

[12] = molecular target: Apoptotic protease-activating factor 1 (Homo sapiens, UniProt O14727); format: functional
Chain of Apoptotic protease-activating factor 1 (O14727 whole entry): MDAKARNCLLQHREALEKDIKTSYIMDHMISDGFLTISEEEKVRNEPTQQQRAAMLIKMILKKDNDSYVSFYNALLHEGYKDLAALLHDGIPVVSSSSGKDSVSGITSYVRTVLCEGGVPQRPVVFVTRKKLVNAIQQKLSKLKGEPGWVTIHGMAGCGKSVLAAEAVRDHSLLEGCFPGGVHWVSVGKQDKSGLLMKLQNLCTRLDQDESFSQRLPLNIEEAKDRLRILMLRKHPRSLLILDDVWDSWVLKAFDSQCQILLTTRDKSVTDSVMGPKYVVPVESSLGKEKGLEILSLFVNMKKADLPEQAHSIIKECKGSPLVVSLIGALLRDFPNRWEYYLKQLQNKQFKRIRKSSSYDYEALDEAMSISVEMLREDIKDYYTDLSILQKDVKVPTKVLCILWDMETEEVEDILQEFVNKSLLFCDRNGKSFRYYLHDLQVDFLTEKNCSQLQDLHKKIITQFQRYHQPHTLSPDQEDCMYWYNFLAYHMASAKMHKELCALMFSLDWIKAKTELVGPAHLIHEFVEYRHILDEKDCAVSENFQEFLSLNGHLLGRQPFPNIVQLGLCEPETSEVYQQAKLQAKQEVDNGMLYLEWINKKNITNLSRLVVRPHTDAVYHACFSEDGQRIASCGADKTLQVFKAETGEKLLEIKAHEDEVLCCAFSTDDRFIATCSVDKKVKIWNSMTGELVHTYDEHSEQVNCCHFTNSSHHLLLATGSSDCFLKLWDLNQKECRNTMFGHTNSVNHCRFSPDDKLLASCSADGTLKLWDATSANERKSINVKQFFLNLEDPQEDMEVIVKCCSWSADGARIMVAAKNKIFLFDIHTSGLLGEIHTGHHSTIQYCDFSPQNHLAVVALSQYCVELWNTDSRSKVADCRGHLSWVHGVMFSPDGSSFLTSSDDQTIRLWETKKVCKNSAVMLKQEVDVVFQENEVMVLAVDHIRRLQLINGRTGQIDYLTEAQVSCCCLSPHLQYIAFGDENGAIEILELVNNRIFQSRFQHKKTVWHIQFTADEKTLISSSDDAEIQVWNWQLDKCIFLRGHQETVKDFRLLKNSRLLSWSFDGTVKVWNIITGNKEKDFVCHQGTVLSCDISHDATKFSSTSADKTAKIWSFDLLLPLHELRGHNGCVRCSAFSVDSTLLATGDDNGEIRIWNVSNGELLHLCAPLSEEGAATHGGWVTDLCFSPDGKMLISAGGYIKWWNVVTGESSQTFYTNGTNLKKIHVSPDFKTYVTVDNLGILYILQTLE

Aurora kinase A = molecular target: T7, Aurora kinase A (Homo sapiens, UniProt O14965); format: functional;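 note: value from the Navigating the Kinome kinase panel profiling, panel entry STK6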
T7 sequence (O14965 whole entry): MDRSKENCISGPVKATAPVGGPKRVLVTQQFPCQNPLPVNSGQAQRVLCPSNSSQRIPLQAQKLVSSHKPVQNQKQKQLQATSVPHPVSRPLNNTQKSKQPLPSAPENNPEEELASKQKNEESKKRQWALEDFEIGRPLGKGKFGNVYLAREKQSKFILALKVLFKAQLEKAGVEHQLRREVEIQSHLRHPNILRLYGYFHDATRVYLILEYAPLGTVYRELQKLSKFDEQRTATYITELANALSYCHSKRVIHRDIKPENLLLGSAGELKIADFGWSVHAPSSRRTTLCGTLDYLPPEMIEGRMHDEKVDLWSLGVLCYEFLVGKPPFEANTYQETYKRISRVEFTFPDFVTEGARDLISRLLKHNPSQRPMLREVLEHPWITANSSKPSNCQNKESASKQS

[13] = molecular target: Vascular endothelial growth factor receptor 2 (Homo sapiens, UniProt P35968); format: functional
Chain of Vascular endothelial growth factor receptor 2 (P35968 whole entry): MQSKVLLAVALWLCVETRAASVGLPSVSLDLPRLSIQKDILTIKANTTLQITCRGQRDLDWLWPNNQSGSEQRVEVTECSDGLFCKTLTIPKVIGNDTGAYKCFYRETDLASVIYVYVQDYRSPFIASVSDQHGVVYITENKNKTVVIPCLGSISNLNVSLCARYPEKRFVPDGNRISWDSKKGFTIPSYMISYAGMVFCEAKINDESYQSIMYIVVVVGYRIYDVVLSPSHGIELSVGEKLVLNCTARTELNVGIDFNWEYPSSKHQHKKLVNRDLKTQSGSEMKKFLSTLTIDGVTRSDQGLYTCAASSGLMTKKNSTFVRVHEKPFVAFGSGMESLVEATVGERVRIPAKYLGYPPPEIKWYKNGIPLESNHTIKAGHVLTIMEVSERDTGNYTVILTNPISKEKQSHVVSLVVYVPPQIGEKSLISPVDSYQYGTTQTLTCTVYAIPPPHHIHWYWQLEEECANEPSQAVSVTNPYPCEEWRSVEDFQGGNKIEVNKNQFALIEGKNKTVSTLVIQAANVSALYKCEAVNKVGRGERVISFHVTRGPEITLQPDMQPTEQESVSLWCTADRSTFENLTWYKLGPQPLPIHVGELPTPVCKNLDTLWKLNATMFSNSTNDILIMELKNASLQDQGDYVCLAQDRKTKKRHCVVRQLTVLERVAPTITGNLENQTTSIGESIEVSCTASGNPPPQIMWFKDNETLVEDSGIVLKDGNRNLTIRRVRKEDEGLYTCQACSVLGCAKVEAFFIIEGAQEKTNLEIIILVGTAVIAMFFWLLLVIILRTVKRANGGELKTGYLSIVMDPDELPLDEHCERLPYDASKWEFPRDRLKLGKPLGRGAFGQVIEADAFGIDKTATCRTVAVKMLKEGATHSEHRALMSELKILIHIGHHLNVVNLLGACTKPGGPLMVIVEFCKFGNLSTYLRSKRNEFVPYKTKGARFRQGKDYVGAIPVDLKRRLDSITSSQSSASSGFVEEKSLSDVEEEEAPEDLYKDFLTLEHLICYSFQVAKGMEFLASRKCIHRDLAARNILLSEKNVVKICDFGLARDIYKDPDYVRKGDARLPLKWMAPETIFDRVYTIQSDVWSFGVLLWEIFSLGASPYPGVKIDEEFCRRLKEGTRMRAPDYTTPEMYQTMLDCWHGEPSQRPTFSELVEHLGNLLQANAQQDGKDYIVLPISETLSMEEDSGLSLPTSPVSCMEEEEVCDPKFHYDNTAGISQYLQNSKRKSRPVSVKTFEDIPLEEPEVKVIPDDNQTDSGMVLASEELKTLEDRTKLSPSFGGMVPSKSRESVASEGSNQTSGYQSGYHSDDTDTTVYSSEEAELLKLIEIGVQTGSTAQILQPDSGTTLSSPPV

Aurora kinase B = Aurora kinase B (Homo sapiens, UniProt Q96GD4); format: functional
Chain of Aurora kinase B (Q96GD4 whole entry): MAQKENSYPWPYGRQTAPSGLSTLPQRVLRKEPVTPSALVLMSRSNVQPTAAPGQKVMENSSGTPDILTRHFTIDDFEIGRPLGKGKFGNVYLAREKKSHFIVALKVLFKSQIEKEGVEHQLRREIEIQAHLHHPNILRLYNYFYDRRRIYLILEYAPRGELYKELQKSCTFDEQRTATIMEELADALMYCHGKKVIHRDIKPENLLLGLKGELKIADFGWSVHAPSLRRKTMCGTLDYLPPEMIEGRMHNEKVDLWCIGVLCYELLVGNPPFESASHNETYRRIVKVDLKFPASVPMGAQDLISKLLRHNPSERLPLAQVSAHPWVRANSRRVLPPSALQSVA

[14] = molecular target: Cyclin-dependent kinase 19 (Homo sapiens, UniProt Q9BWU1); assay: Navigating the Kinome. Panel member name: CDC2L6; format: functional
Chain of Cyclin-dependent kinase 19 (Q9BWU1 whole entry): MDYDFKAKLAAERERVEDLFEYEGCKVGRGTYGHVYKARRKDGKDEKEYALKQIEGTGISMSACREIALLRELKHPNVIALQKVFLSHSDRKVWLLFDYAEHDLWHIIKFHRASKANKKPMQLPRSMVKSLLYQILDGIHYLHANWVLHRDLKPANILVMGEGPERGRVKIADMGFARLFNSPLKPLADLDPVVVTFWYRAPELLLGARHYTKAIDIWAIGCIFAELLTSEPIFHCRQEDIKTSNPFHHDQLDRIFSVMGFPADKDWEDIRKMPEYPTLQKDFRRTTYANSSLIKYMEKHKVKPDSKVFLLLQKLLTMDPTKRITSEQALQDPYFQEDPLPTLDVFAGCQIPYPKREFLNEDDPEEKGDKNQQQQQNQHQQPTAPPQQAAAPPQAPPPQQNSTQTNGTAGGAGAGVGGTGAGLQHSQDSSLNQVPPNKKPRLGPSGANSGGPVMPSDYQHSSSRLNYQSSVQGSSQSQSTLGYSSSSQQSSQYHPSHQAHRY

[15] = Luminescence Cell-Based Dose Confirmation HTS to Identify Activators of 5'UTR Stem-Loop Driven Alpha-Synuclein mRNA Translation in H4 Neuroglioblastoma Cells. [Related pubchem assays: 1829 (Project Summary), 1814 (Primary HTS)]; format: functional
[16] = Luminescence Cell-Based Dose Response HTS to Identify Activators of Luciferase Translation or Activity in H4 […] Cells. [Related pubchem assays: 1829 (Project Summary), 1814 (Primary HTS)]; format: functional
Vero = assay: viability of Vero cells under compound – cytotoxicity control for flavivirus capping enzyme inhibitors (AID 588742); format: functional; conditions: Chlorocebus sabaeus
H4 = assay: Luminescence Cell-Based Dose Response HTS to Identify Activators of 5'UTR Stem-Loop Driven Prion Protein mRNA Translation in H4 Neuroglioblastoma Cells. [Related pubchem assays: 1829 (Project Summary), 1814 (Primary HTS)]; format: functional; conditions: Homo sapiens
[17] = molecular target: FAD-linked sulfhydryl oxidase ALR (Homo sapiens, UniProt P55789); assay: ALR-catalysed DTT oxidation blockers – biochemical, H2O2 detection, luminescence, cherry-pick, dose response (AID 493248)
Chain of FAD-linked sulfhydryl oxidase ALR (P55789 whole entry): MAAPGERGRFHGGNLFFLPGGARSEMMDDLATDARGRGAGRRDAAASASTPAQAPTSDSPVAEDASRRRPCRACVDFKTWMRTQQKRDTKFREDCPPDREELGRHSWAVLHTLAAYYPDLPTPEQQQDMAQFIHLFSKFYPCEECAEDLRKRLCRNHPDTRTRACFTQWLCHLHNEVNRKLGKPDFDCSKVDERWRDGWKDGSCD

Cytochrome P450 2C9 = Cytochrome P450 2C9 (Homo sapiens, UniProt P11712)
Chain of Cytochrome P450 2C9 (P11712 whole entry): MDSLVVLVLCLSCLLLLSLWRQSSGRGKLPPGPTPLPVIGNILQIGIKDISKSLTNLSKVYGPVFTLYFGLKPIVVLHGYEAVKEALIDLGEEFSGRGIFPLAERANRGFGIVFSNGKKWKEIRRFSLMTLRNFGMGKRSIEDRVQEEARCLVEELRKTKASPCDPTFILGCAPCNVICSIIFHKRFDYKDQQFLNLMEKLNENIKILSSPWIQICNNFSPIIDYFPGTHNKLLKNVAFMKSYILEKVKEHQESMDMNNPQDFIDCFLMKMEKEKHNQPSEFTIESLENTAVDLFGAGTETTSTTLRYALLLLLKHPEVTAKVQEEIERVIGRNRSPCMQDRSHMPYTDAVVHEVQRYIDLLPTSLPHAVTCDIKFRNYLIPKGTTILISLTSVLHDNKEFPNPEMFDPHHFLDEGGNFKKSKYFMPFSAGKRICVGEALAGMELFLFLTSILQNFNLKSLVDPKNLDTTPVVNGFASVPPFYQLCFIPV

Cytochrome P450 2D6 = Cytochrome P450 2D6 (Homo sapiens, UniProt P10635);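 note: CYP2D6 member of a cytochrome P450 panel assay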
Chain of Cytochrome P450 2D6 (P10635 whole entry): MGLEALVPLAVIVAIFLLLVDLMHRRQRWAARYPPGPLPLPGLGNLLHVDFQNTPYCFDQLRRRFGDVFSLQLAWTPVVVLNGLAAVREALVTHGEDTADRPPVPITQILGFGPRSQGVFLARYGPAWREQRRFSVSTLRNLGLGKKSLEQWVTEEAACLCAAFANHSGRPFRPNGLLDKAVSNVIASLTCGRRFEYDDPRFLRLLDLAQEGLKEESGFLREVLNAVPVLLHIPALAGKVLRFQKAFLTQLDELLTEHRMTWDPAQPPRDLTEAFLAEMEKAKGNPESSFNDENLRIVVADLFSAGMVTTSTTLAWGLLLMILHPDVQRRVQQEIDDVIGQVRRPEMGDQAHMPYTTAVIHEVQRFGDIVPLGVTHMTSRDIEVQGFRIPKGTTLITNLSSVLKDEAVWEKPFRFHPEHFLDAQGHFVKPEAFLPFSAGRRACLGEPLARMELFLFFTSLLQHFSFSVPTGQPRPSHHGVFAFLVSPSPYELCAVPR

With `Nc1ccc(-c2nc3cc([N+](=O)[O-])ccc3[nH]2)cc1` the IC50 [1] was 23.8 µM (active), the IC50 [2] was 28.3 µM (active) and the IC50 (Caspase-3 [3]) was 17.2 µM (active). For the same compound, the IC50 [4] was 8.59 µM (active).
In the case of `CN(C)c1cc(NN=Cc2ccco2)nc(N(C)C)n1`, the IC50 [5] is reported as 17.5 µM (active), the IC50 [6] is reported as 35 µM (active) and the IC50 [7] is reported as 75.6 µM (active). For the same compound, the IC50 (Caspase-3 [8]) was > 99 µM (inactive).
With `N#CC(c1ccc(F)c(F)c1)c1c(Cl)cnn(Cc2cccc3ccccc23)c1=O` (stereo unspecified) the IC50 [9] was 186 nM (active) and the IC50 [10] was 186 nM (active).
In the case of `Cc1ccc(NC(=O)CCc2c(C)nn(-c3ccc(N4CCCCC4)nn3)c2C)cc1F`, the IC50 [1] is reported as 29.4 µM (active), the IC50 [2] is reported as 24.4 µM (active) and the IC50 (Caspase-3 [3]) is reported as 21.6 µM (active). The IC50 [4] was 7.86 µM (active).
For `O=C1OC(Nc2ccc3ncccc3c2)c2ccccc21` (stereo unspecified), the IC50 [11] was > 50 µM (not active) and the IC50 [12] was 32.9 µM (active).
In the case of `COc1cc(Nc2ncc(C(F)(F)F)c(N)n2)cc(OC)c1OC`, the Ki (Aurora kinase A) is reported as 200 nM (active), the Ki [13] is reported as 3.98 µM (active) and the Ki (Aurora kinase B) is reported as 39.8 nM (active).
With `Cc1ccc(NC(=O)Nc2ccc(-c3c(C(C)C)sc4ncnc(N)c34)cc2)cc1` the Ki (Aurora kinase A) was 79.4 nM (active) and the Ki [14] was > 100 µM (inactive).
With `O=C1c2sc3nc4n(c(=O)c3c2CCC1Br)CCCCC4` (stereo unspecified) the EC50 [15] was 5.38 µM (active), the EC50 [16] was 8.79 µM (active) and the CC50 (Vero) was 24.2 µM (active). For the same compound, the EC50 (H4) was 7.07 µM (active) and the AC50 [17] was 1.7 µM (active).
For `O=C(/C=C/c1ccc(OC2CSC2)cc1)c1ccccc1`, the IC50 [5] was 7.59 µM (active), the IC50 [6] was 5.23 µM (active) and the IC50 [7] was 8.36 µM (active). The IC50 (Caspase-3 [8]) was 23.3 µM (active).
With `NC(=O)c1cccc2[nH]c(-c3ccc(N4CCN(Cc5ccccc5)CC4)nc3)nc12` the Ki (Aurora kinase A) was 501 nM (active), the Ki [13] was 2 µM (active) and the Ki (Aurora kinase B) was 20 nM (active).
In the case of `Cc1ccc(-c2nn3c(C)nnc3c3ccccc23)cc1S(=O)(=O)NCc1ccccc1`, the AC50 (Cytochrome P450 2C9) is reported as 1.26 µM (inconclusive), the AC50 (Cytochrome P450 2D6) is reported as 15.8 µM (inconclusive) and the IC50 [12] is reported as 9.2 µM (active).
